One assay concerns the target DGKζ (Homo sapiens (Human), UniProt Q13574). The experiment in a line: Biochemical DGK IC50 assay (ADP-Glo, lipid micelle substrate), DGKζ. Particulars: full length DGKζ 0.5 nM, ATP 140 μM, DAG 80 μM. The procedure:
(§1) Enzymatic reactions of DGKζ, DGKα and DGKδ were performed using ADP-Glo assay with lipid micelle substrate. […] Full length DGKα (D21-10BG, SignalChem) and full length DGKδ (D23-10G, SignalChem) were purchased. Lipid micelle was prepared by dissolving DAG (Sigma, 317505-10MG) and PS (Sigma, P7769-100MG) with chloroform which was furtherly removed by rotary evaporation. The resulted product was resuspended in buffer containing 25 mM HEPES pH 7.0, 0.5 mM EDTA and 160 mM Octyl P-D glucopyranoside by vigorous mixing and ultrasonic (IID, Scientz).
(§2) The inhibition activities testing for the compound disclosed herein were carried out at room temperature in assay buffer containing 50 mM HEPES, 10 mM MgCl2, 0.01% BSA, 0.1 mM Na3VO4, 0.005% Tween-20 and 0.01 mM CaCl2. Compounds in DMSO were dispensed into wells of a black 384 well plate (Corning 4514) using D300e digital dispenser (Tecan). […] 3 μL 2× enzyme solution was added to wells. […] After 1 hour reaction, 5 μL ADP-Glo reagent (Promga V9101) was added and incubated for 40 minutes. 10 μL Kinase Detection reagent was added and incubated for 30 minutes. Luminescence was measured on a microplate reader (PHERAstar FSX, BMG labtech). The IC50s are calculated based on inhibition of enzyme activity in the presence of increasing concentrations of compounds.
Human His-TEV-DGK-zeta-pFastBac1 and human baculovirus samples was generated using the Bac-to-Bac baculovirus expression system (Invitrogen) according to the manufacturer's protocol. The DNA used for expression of DGK-zeta, have SEQ ID Nos: 1. Baculovirus amplification was achieved using infected SF9 cells at 1:2000 virus/cells ratios, and grown for 96 hours at 27° C. post-transfected.
The expression scaled up for each protein was carried out in the […] from CORNING. 4 L of 3×10^6 cells/mL Sf9 cells (Expression System, Invitrogen) grown in SF900™ II SFM insect medium (Expression System) was infected with virus stock at 1:200 virus/cells ratio, and grown for 48 hours at 27° C. post-transfection. The infected cell culture was harvested by centrifugation at 6000 rpm for 15 min 4° C. in a SORVALL LYNX6000 centrifuge. The cell pellets were stored at −80° C.
Full length human DGKζ produced as described above, was purified from Sf9 baculovirus-infected insect cell paste. The cells were lysed using sonication method, and the lysates were clarified by centrifugation.
On the technique in general: In ADP-Glo the light output rises with the ADP produced.

Another assay deals with DGKα (Homo sapiens (Human), UniProt P23743). The experiment in a line: Biochemical DGK IC50 assay (ADP-Glo, lipid micelle substrate), DGKα. Also: full length DGKα 7.5 nM. The conditions noted are these: full length DGKα […], ATP 140 μM, DAG 80 μM. The method, then: as §1, §2
Sequence of DGKα (P23743 whole entry): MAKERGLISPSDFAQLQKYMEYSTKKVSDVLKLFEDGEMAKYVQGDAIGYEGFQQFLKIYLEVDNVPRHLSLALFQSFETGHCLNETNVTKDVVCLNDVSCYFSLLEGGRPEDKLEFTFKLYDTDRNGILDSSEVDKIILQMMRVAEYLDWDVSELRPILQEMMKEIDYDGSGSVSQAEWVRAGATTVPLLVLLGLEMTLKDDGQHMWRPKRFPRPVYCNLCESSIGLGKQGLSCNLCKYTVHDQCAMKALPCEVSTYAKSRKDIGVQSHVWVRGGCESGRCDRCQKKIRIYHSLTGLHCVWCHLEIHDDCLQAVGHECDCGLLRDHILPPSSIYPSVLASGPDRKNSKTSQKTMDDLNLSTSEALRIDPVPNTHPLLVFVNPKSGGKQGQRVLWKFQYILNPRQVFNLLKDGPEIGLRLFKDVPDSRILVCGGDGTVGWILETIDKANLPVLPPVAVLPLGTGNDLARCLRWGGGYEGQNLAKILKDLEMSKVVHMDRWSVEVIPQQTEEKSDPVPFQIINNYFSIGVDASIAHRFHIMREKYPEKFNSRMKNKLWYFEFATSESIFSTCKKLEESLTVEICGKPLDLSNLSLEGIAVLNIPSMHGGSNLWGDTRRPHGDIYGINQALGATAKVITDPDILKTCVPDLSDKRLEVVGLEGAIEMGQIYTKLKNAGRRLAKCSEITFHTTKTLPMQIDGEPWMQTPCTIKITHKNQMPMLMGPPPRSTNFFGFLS

Here are results for 34 compounds from patent US20250346597A1, “CONDENSED HETEROCYCLIC COMPOUNDS AS INHIBITOR OF DIACYLGLYCEROL KINASES” (BEONE MEDICINES I GMBH, priority 2023, published 2025).

Broadly, the IC50 is the concentration needed to halve the response being measured.

Sequence of DGKζ (Q13574 other isoform, or with tags, fused parts or gaps): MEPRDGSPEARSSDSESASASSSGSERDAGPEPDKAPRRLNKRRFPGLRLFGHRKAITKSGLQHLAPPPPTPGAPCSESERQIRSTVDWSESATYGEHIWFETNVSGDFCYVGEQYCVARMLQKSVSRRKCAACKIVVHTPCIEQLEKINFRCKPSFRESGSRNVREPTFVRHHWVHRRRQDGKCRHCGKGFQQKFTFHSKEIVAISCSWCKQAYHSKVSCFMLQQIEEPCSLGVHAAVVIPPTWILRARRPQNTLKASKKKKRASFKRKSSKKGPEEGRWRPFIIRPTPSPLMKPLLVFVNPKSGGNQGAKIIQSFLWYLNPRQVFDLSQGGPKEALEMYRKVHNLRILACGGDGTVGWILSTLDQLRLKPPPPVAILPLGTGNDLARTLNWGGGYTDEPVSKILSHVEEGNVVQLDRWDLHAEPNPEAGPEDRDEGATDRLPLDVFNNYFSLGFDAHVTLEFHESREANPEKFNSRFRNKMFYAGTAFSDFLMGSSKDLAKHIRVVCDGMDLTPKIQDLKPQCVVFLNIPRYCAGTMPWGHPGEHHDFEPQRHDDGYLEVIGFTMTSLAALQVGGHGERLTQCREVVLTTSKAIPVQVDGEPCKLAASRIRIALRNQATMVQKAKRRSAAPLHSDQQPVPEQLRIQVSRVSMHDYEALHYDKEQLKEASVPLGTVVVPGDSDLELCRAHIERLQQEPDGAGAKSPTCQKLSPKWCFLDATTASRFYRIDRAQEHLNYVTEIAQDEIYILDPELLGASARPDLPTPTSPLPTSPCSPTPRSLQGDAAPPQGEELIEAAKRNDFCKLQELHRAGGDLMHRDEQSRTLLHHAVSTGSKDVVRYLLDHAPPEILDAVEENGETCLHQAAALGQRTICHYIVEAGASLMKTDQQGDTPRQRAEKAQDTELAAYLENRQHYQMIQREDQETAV

As for `CC[C@H]1CN(C(C)c2ccc(C(C)(C)F)nc2)[C@H](CC)CN1c1cc(=O)n(C)c2cn(CC#N)nc12` (single isomer, unassigned) [Compound A46b], the IC50 against DGKζ is 396 nM; against DGKα, 913 nM.
As to `CC[C@H]1CN(C(C)c2cnc(C3CC3)cc2F)[C@H](CC)CN1c1cc(=O)n(C)c2cn(CC#N)nc12` (single isomer, unassigned) [Compound A47a], the IC50 on DGKζ came to 88 nM; on DGKα it was 1190 nM.
With `CC[C@H]1CN(C(C)c2cnc(C3CC3)cc2F)[C@H](CC)CN1c1cc(=O)n(C)c2cn(CC#N)nc12` (single isomer, unassigned) [Compound A47b], the IC50 on DGKζ was determined as 1120 nM; on DGKα, 3520 nM.
For the compound `CC[C@H]1CN(C(C)c2ccc(C3CC3)nc2)[C@H](CC)CN1c1c(F)c(=O)n(C)c2cn(CC#N)nc12` (single isomer, unassigned) [Compound A48a], the IC50 at DGKζ was found to be 59 nM; at DGKα it was 240 nM.
With `CC[C@H]1CN(C(C)c2ccc(C3CC3)nc2)[C@H](CC)CN1c1c(F)c(=O)n(C)c2cn(CC#N)nc12` (single isomer, unassigned) [Compound A48b], the values for the 50% inhibitory concentration (IC50) at DGKζ and against DGKα were 108 nM and 788 nM, respectively.
The corresponding values for `CC[C@H]1CN(C(C)c2ccc(OC(C)C)cn2)[C@H](CC)CN1c1cc(=O)n(C)c2cn(CC#N)nc12` (single isomer, unassigned) [Compound A51b] are 1800 nM and 337 nM.
For the compound `CC[C@H]1CN(C(C)c2ccc(C)c(C)n2)[C@H](CC)CN1c1cc(=O)n(C)c2cn(CC#N)nc12` (single isomer, unassigned) [Compound A54a], the half-maximal inhibitory concentration (IC50) at DGKζ was 33 nM; against DGKα it was 76 nM.
On to `CC[C@H]1CN(C(C)c2ccc(C)c(C)n2)[C@H](CC)CN1c1cc(=O)n(C)c2cn(CC#N)nc12` (single isomer, unassigned) [Compound A54b], for which the values for the concentration for half-maximal inhibition (IC50) on DGKζ and against DGKα were 1890 nM and 1910 nM, respectively.
With `CC[C@H]1CN(C(C)c2ccc3c(c2)OCO3)[C@H](CC)CN1c1cc(=O)n(C)c2cn(CC#N)nc12` (single isomer, unassigned) [Compound A68a], the 50% inhibitory concentration (IC50) at DGKζ is 49 nM; against DGKα, 97 nM.
In the case of `CC[C@H]1CN(C(C)c2ccc3c(c2)OCO3)[C@H](CC)CN1c1cc(=O)n(C)c2cn(CC#N)nc12` (single isomer, unassigned) [Compound A68b], the IC50 against DGKζ came to 2550 nM; against DGKα, 1390 nM.
For `CC[C@H]1CN(C(C)c2ccc3c(n2)OCO3)[C@H](CC)CN1c1cc(=O)n(C)c2cn(CC#N)nc12` (single isomer, unassigned) [Compound A75a], the IC50 at DGKζ amounted to 139 nM; against DGKα, 74 nM.
As to `CC[C@H]1CN(C(C)c2ccc3c(n2)OCO3)[C@H](CC)CN1c1cc(=O)n(C)c2cn(CC#N)nc12` (single isomer, unassigned) [Compound A75b], the IC50 on DGKζ was determined as 5050 nM; against DGKα it was 1110 nM.
For the compound `CC[C@H]1CN(C(C)c2ccc3ccnn3c2)[C@H](CC)CN1c1cc(=O)n(C)c2cn(CC#N)nc12` (single isomer, unassigned) [Compound A77a], the half-maximal inhibitory concentration (IC50) against DGKζ was found to be 54 nM; at DGKα, 178 nM.
In the case of `CC[C@H]1CN(C(C)c2ccc3ccnn3c2)[C@H](CC)CN1c1cc(=O)n(C)c2cn(CC#N)nc12` (single isomer, unassigned) [Compound A77b], the IC50 came to 859 nM on DGKζ and 744 nM at DGKα.
Turning to `CC[C@H]1CN(C(C)c2ccn3ccnc3c2)[C@H](CC)CN1c1cc(=O)n(C)c2cn(CC#N)nc12` (single isomer, unassigned) [Compound A80a], the IC50 is 939 nM on DGKζ and 140 nM on DGKα.
Regarding `CC[C@H]1CN(C(C)c2ccn3ccnc3c2)[C@H](CC)CN1c1cc(=O)n(C)c2cn(CC#N)nc12` (single isomer, unassigned) [Compound A80b], the IC50 against DGKζ is 6900 nM; at DGKα it was 3040 nM.
The like results for `CC[C@H]1CN(C(C)c2ccc3nccn3c2)[C@H](CC)CN1c1cc(=O)n(C)c2cn(CC#N)nc12` (single isomer, unassigned) [Compound A82a] were, in that order, 486 nM and 109 nM.
Regarding `CC[C@H]1CN(C(C)c2ccc3nccn3c2)[C@H](CC)CN1c1cc(=O)n(C)c2cn(CC#N)nc12` (single isomer, unassigned) [Compound A82b], the 50% inhibitory concentration (IC50) against DGKζ was determined as 8520 nM; against DGKα it was 3050 nM.
`CC[C@H]1CN(C(C)c2ccc3cncn3c2)[C@H](CC)CN1c1cc(=O)n(C)c2cn(CC#N)nc12` (single isomer, unassigned) [Compound A83a]: the IC50 against DGKζ is 8790 nM; on DGKα, 648 nM.
For `CC[C@H]1CN(C(C)c2ccc3cncn3c2)[C@H](CC)CN1c1cc(=O)n(C)c2cn(CC#N)nc12` (single isomer, unassigned) [Compound A83b], the half-inhibitory concentration (IC50) on DGKζ came out at 1800 nM; against DGKα, 90 nM.
On to `CC[C@H]1CN(C(C)c2ccc3ncoc3c2)[C@H](CC)CN1c1cc(=O)n(C)c2cn(CC#N)nc12` (single isomer, unassigned) [Compound A84a], for which the IC50 against DGKζ stood at 43 nM; on DGKα, 68 nM.
As to `CC[C@H]1CN(C(C)c2ccc3ncoc3c2)[C@H](CC)CN1c1cc(=O)n(C)c2cn(CC#N)nc12` (single isomer, unassigned) [Compound A84b], the 50% inhibitory concentration (IC50) against DGKζ is 3180 nM; against DGKα, 1170 nM.
The corresponding values for `CC[C@@H]1CN(c2cc(=O)n(C)c3cn(CC#N)nc23)[C@@H](C)CN1[C@@H](C)c1ccc2ncoc2c1` (single isomer, unassigned) [Compound A85a] are 78 nM and 170 nM.
On to `CC[C@@H]1CN(c2cc(=O)n(C)c3cn(CC#N)nc23)[C@@H](C)CN1[C@H](C)c1ccc2ncoc2c1` (single isomer, unassigned) [Compound A85b], for which the 50% inhibitory concentration (IC50) against DGKζ was 3500 nM; against DGKα, 2040 nM.
The corresponding values for `CC[C@H]1CN(C(C)c2ccc(NC(C)=O)c(O)c2F)[C@H](CC)CN1c1cc(=O)n(C)c2cn(CC#N)nc12` (single isomer, unassigned) [Compound A87a] are 2820 nM and 2010 nM.
The corresponding values for `CC[C@H]1CN(C(C)c2ccc(NC(C)=O)c(O)c2F)[C@H](CC)CN1c1cc(=O)n(C)c2cn(CC#N)nc12` (single isomer, unassigned) [Compound A87b] are > 10000 nM and 35200 nM.
In the case of `CC[C@@H]1CN(c2cc(=O)n(C)c3cn(CC#N)nc23)[C@@H](C)CN1C(C)c1ccc2ncsc2c1` (single isomer, unassigned) [Compound A92a], the 50% inhibitory concentration (IC50) against DGKζ came to 9.1 nM; on DGKα, 108 nM.
With `CC[C@@H]1CN(c2cc(=O)n(C)c3cn(CC#N)nc23)[C@@H](C)CN1C(C)c1ccc2ncsc2c1` (single isomer, unassigned) [Compound A92b], the IC50 came to 265 nM at DGKζ and 1020 nM against DGKα.
Turning to `CC[C@H]1CN(C(C)c2cnc3ncsc3c2)[C@H](CC)CN1c1cc(=O)n(C)c2cn(CC#N)nc12` (single isomer, unassigned) [Compound A98a], the IC50 against DGKζ turned out to be 108 nM; on DGKα, 5510 nM.
The like results for `CC[C@H]1CN(C(C)c2cnc3ncsc3c2)[C@H](CC)CN1c1cc(=O)n(C)c2cn(CC#N)nc12` (single isomer, unassigned) [Compound A98b] were, in that order, 2870 nM and 9470 nM.
For the compound `CC[C@H]1CN(C(C)c2ccc3ncsc3n2)[C@H](CC)CN1c1cc(=O)n(C)c2cn(CC#N)nc12` (single isomer, unassigned) [Compound A99a], the IC50 came to 3520 nM against DGKζ and 1740 nM against DGKα.
Regarding `CC[C@H]1CN(C(C)c2ccc3ncsc3n2)[C@H](CC)CN1c1cc(=O)n(C)c2cn(CC#N)nc12` (single isomer, unassigned) [Compound A99b], the IC50 against DGKζ came to 8.6 nM; on DGKα, 24 nM.
As to `CC[C@@H]1CN(c2cc(=O)n(C)c3cn(CC#N)nc23)[C@@H](C)CN1C(C)c1ccc2ncsc2n1` (single isomer, unassigned) [Compound A100a], the 50% inhibitory concentration (IC50) was 46 nM against DGKζ and 85 nM against DGKα.
Turning to `CC[C@@H]1CN(c2cc(=O)n(C)c3cn(CC#N)nc23)[C@@H](C)CN1C(C)c1ccc2ncsc2n1` (single isomer, unassigned) [Compound A100b], the results for the half-inhibitory concentration (IC50) on DGKζ and against DGKα were 2610 nM and 2890 nM, respectively.
